# Laboratory results: patent US5219884A, “Immunosuppressant” (Taito Co., Ltd., priority 1990, dated 1993)
# Where two headings read alike, the source gives them in different places.
# Legend:
# [1] = system: IL2-dependent mouse cell line CTLL-2; assay: suppression of IL-2 induced 3H-thymidine incorporation of CTLL-2; assay type: cell-based; conditions: for inhibition at 0.01 µg/mL / inhibition at 0.1 µg/mL / inhibition at 1 µg/mL / inhibition at 10 µg/mL: Mus musculus; for inhibition at 0.01 µg/mL / inhibition at 0.1 µg/mL / inhibition at 10 µg/mL: read-out: Suppression
# Method: IL2-dependent mouse cell line CTLL-2 cells were suspended in the RPMI1640 culture medium supplemented with 30% FCS to a concentration of 2×10^5 cells/ml. The suspension (50 μl) and 50 μl of concanavalin A-stimulated rat spleen cell culture supernatants containing IL2 were added to each well of 96-well microculture plates in which 100 μl of the test substance had been placed. After culturing at 37° C. in an atmosphere of 5% carbon dioxide for 20, 44, or 68 hours, 0.5 μCi/well of ^3 H-thymidine was added, and cultured for 4 hours under the same conditions. After termination of the culture, the cells were harvested by a cell harvester, and the radioactivity incorporated into the cells was measured by a liquid scintillation counter.
# in vitro = assay type: cell-based, human; conditions: human, read-out: Suppression
# Method: (§1) Cytotoxicity to human tumor cell lines was examined as follows:
# (§2) Cells of human cell lines, K562, MOLT4, U937, HL60, KATOIII, KB, PC-6, PC-14 and CCRF-CEM were separately suspended to the concentration of 2×10^5 cells/ml in the RPMI1640 culture medium supplemented with 20% FCS. Fifty μl of this suspension was added to each well of 96-well microculture plates to which 50 μl of the test solution had been added. After culturing at 37° C. in an atmosphere of 5% carbon dioxide for 72 hours, the absorbancy at 550 nm was measured in the same way as the colorimetry using MTT in Experimental Example 1, and the percent suppression was calculated in the same manner as in Experimental Example 14, which was used as the index of cytotoxicity.
# K562 = assay: in vitro; assay type: cell-based, human
# Method: as §1, §2
# [2] = cytotoxicity to tumor cell line MOLT4; assay type: cell-based, human; conditions: human, molt4 cells, read-out: Suppression
# Method: as §1, §2
# MOLT4 = assay: cytotoxicity to tumor cell line MOLT4; assay type: cell-based, human
# Method: as §1, §2
# [3] = system: mouse allogenic mixed lymphocyte reaction (BALB/c responder, C57BL/6 stimulator spleen cells); assay: mouse allogenic mixed lymphocyte reaction (MLR), blastogenesis by 3H-thymidine uptake; assay type: cell-based
# Method: The immunosuppressive activity of the compounds (I) and their lactones was assayed by using mouse allogenic mixed lymphocyte reaction (hereinafter sometimes abbreviated as MLR). Mouse allogenic MLR was carried out by mixed culture of the BALB/c mouse (H-2^d) spleen cells as the responder cells and the mitomycin C-treated C57BL/6 (H-2^b) spleen cells as the stimulator cells in equal amounts.
# The responder cells were prepared as follows: The spleen was resected from 5- to 6-week-old male BALB/c mice, and single cell suspension of spleen cells was prepared by using the RPMI1640 culture medium (containing 60 μg/ml of kanamycin sulfate, 2 mM of L-glutamine, 10 mM of N-2-hydroxyethylpiperazine-N'-2-ethanesulfonate (HEPES) and 0.1% sodium hydrogencarbonate) to which heat-inactivated fetal calf serum (hereinaftersometimes abbreviated as FCS) had been added to 5%. After hemolytic treatment, the cell suspension was adjusted to a concentration of 10^7 cells/ml by using the RPMI1640 culture medium supplemented with 10^-4 M 2-mercaptoethanol and 20% FCS, and was used as the responder cell suspension.
# The stimulator cells were prepared as follows:
# The spleen was resected from 5- to 6-week-old male C57BL/6 mice, and single cell suspension of spleen cells was prepared by using the RPMI1640 culture medium. After hemolytic treatment, the cells were treated with 40 μg/ml of mitomycin C at 37° C. for 60 minutes. After washing three times, the concentration of the cell suspension was adjusted to 10^7 cells/ ml by using the RPMI1640 culture medium supplemented with 10^-4 M 2-mercaptoethanol and 20% FCS, and was used as the stimulator cell suspension.
# Fifty μl of the responder cell suspension, 50μl of the stimulator cell suspension prepared by the above method, and 100 μl of the test substance were placed in 96-well microculture plates, and were cultured at 37° C. in an atmosphere of 5% carbon dioxide for 4 days.
# The blastogenesis of lymphocytes was assayed by a method of ^3 H-thymidine uptake as an index. That is, after termination of the culture, 0.5 μCi/well of ^3 H-thymidine was added and cultured for 4 hours. Cells were harvested by a cell-harvester, and the radioactivity incorporated into the cells was determined by a liquid scintillation counter to obtain the index of blastogenesis of lymphocytes in the mouse allogenic MLR. The suppression of the mouse allogenic MLR was evaluated by calculating the percent suppression by the following formula. [formula]
# The test substance was dissolved in methanol or suspended in a mixture of methanol and acetic acid, and then diluted with the RPMI1640 culture medium.
smiles,measurement,setting,value
CCCCCCC(=O)CCCCCC/C=C/CC1OC(=O)C(N)(CO)C1O (stereo not shown) [Example 4],3H-thymidine uptake,"[1]; 24 hrs, 0.01 μg/ml",5907 cpm
same,3H-thymidine uptake,"[1]; 24 hrs, 0.1 μg/ml",4240 cpm
same,3H-thymidine uptake,"[1]; 24 hrs, 1 μg/ml",5400 cpm
same,3H-thymidine uptake,"[1]; 24 hrs, 10 μg/ml",2602 cpm
same,3H-thymidine uptake,"[1]; 48 hrs, 0.01 μg/ml",21930 cpm
same,3H-thymidine uptake,"[1]; 48 hrs, 0.1 μg/ml",9202 cpm
same,3H-thymidine uptake,"[1]; 48 hrs, 1 μg/ml",7202 cpm
same,3H-thymidine uptake,"[1]; 48 hrs, 10 μg/ml",7465 cpm
same,3H-thymidine uptake,"[1]; 72 hrs, 0.01 μg/ml, control 78515 cpm",69355 cpm
same,3H-thymidine uptake,"[1]; 72 hrs, 0.1 μg/ml, control 78515 cpm",16705 cpm
same,3H-thymidine uptake,"[1]; 72 hrs, 1 μg/ml, control 78515 cpm",4088 cpm
same,3H-thymidine uptake,"[1]; 72 hrs, 10 μg/ml, control 78515 cpm",11806 cpm
same,inhibition at 0.01 µg/mL,"[1]; CTLL-2, 48 h",13.3%
same,inhibition at 0.01 µg/mL,"[1]; CTLL-2, 24 hrs, 0.01 μg/ml",11.8%
same,inhibition at 0.1 µg/mL,"[1]; CTLL-2, 24 hrs, 0.1 μg/ml",37.5%
same,inhibition at 1 µg/mL,"[1]; CTLL-2, 24 hrs, 1 μg/ml",19.6%
same,inhibition at 10 µg/mL,"[1]; CTLL-2, 24 hrs, 10 μg/ml",62.7%
same,inhibition at 0.1 µg/mL,"[1]; CTLL-2, 48 hrs, 0.1 μg/ml",64.6%
same,inhibition at 1 µg/mL,"[1]; CTLL-2, 48 hrs, 1 μg/ml",72.7%
same,inhibition at 10 µg/mL,"[1]; CTLL-2, 48 hrs, 10 μg/ml",71.6%
same,inhibition at 0.01 µg/mL,"[1]; CTLL-2, 72 hrs, 0.01 μg/ml, control 78515 cpm",11.8%
same,inhibition at 0.1 µg/mL,"[1]; CTLL-2, 72 hrs, 0.1 μg/ml, control 78515 cpm",79.4%
same,inhibition at 1 µg/mL,"[1]; CTLL-2, 72 hrs, 1 μg/ml, control 78515 cpm",95.6%
same,inhibition at 10 µg/mL,"[1]; CTLL-2, 72 hrs, 10 μg/ml, control 78515 cpm",85.7%
same,cytotoxicity at 72 h,"in vitro; ccrf-cem cells, 0.1 μg/ml",11.3%
same,cytotoxicity at 72 h,"in vitro; ccrf-cem cells, 1.0 μg/ml",12.6%
same,cytotoxicity at 72 h,"in vitro; ccrf-cem cells, 10.0 μg/ml",37.4%
same,cytotoxicity at 72 h,"in vitro; ccrf-cem cells, 100.0 μg/ml",99.4%
same,cytotoxicity at 72 h,"in vitro; hl60 cells, 0.1 μg/ml",23.4%
same,cytotoxicity at 72 h,"in vitro; hl60 cells, 1.0 μg/ml",13.3%
same,cytotoxicity at 72 h,"in vitro; hl60 cells, 10.0 μg/ml",21.1%
same,cytotoxicity at 72 h,"in vitro; hl60 cells, 100.0 μg/ml",97.7%
same,cytotoxicity at 72 h,"in vitro; k562 cells, 0.1 μg/ml",14.7%
same,cytotoxicity at 72 h,"in vitro; k562 cells, 1.0 μg/ml",8.3%
same,cytotoxicity at 72 h,"in vitro; k562 cells, 10.0 μg/ml",14.5%
same,cytotoxicity at 72 h,"in vitro; k562 cells, 100.0 μg/ml",98.9%
same,cytotoxicity at 72 h,"in vitro; katoiii cells, 0.1 μg/ml",5.3%
same,cytotoxicity at 72 h,"in vitro; katoiii cells, 1.0 μg/ml",6.7%
same,cytotoxicity at 72 h,"in vitro; katoiii cells, 10.0 μg/ml",25.8%
same,cytotoxicity at 72 h,"in vitro; katoiii cells, 100.0 μg/ml",97.9%
same,cytotoxicity at 72 h,"in vitro; kb cells, 0.1 μg/ml",19%
same,cytotoxicity at 72 h,"in vitro; kb cells, 1.0 μg/ml",2.5%
same,cytotoxicity at 72 h,"in vitro; kb cells, 10.0 μg/ml",33.5%
same,cytotoxicity at 72 h,"in vitro; kb cells, 100.0 μg/ml",99%
same,cytotoxicity at 72 h,"in vitro; pc-14 cells, 0.1 μg/ml",0%
same,cytotoxicity at 72 h,"in vitro; pc-14 cells, 1.0 μg/ml",0%
same,cytotoxicity at 72 h,"in vitro; pc-14 cells, 10.0 μg/ml",0%
same,cytotoxicity at 72 h,"in vitro; pc-14 cells, 100.0 μg/ml",95.3%
same,cytotoxicity at 72 h,"in vitro; u937 cells, 0.1 μg/ml",16.1%
same,cytotoxicity at 72 h,"in vitro; u937 cells, 1.0 μg/ml",0%
same,cytotoxicity at 72 h,"in vitro; u937 cells, 10.0 μg/ml",2.9%
same,cytotoxicity at 72 h,"in vitro; u937 cells, 100.0 μg/ml",99%
same,Absorbancy,K562; 0.1 μg/ml,0.524
same,Absorbancy,K562; 1.0 μg/ml,0.563
same,Absorbancy,K562; 10.0 μg/ml,0.525
same,Absorbancy,K562; 100.0 μg/ml,0.007
same,cytotoxicity at 72 h,[2]; 0.1 μg/ml,14%
same,cytotoxicity at 72 h,[2]; 1.0 μg/ml,14.2%
same,cytotoxicity at 72 h,[2]; 10.0 μg/ml,22.8%
same,cytotoxicity at 72 h,[2]; 100.0 μg/ml,97.1%
same,Absorbancy,MOLT4; 0.1 μg/ml,0.351
same,Absorbancy,MOLT4; 1.0 μg/ml,0.350
same,Absorbancy,MOLT4; 10.0 μg/ml,0.315
same,Absorbancy,MOLT4; 100.0 μg/ml,0.012
same,3H-thymidine uptake,[3]; 0.001 μg/ml,29598 cpm
same,3H-thymidine uptake,[3]; 0.01 μg/ml,10394 cpm
same,3H-thymidine uptake,[3]; 0.1 μg/ml,1414 cpm
same,inhibition at 0.001 µg/mL,"[3]; Mus musculus, Lymphocyte, 0.001 μg/ml, read-out: Suppression",0.4%
same,inhibition at 0.01 µg/mL,"[3]; Mus musculus, Lymphocyte, 0.01 μg/ml, read-out: Suppression",70%
same,inhibition at 0.1 µg/mL,"[3]; Mus musculus, Lymphocyte, 0.1 μg/ml, read-out: Suppression",100%
